What was measured:
[1] = Analysis of free thiabenzadol in treatment water by HPLC; format: physicochemical; details: example 22
Experimental: (§1) The reduction of free fungicide in water is calculated as: 100×(concentration of free fungicide in reference treatment water−concentration of free fungicide in LD treatment water)/concentration of free fungicide in reference treatment water. Likewise, the reduction of fungicide residues in fruits is calculated as: 100×(fungicide residues in fruit in reference treatment−fungicide residues in fruit in LD treatment)/fungicide residues in fruit in reference treatment.
This experiment was carried out following the same procedure as for examples 9-14. The free thiabenzadol residues in water and virtual were analyzed according to examples 23 and 24. For the reference conventional treatment (TBZ REF) a solution of thiabenzadol at 1200 mg/l in tap water was prepared from a commercial solution at 40% (TEXTAR). For the LD treatment (TBZ LD C18) a suspension of (TBZ)SG-C18-OH of 16 g/l in tap water buffered with sodium etidronate 10 mM at pH=7.5 was prepared from the concentrated suspension described in example 21. A 16 g/l suspension correspond to a virtual thiabenzadol concentration contained within the microparticles of 1200 mg/l. As a control, a treatment of bathing in tap water was carried out (CONTROL).
(§2) 1 ml of test solution of loaded microparticles was filtered through a nylon 0.45 micron syringe filter and later analyzed by HPLC (Agilent 1100 Series).
(§3) Chromatographic Conditions: […]

[2] = tested on: Penicillium digitatum; assay: Rotting control (RRI) in oranges of Valencia variety inoculated with P. digitatum; format: in vivo; details: 7 days at 22° C. and 85% RH
Experimental: Without previous washing or treatment, fruits from the same batch, receive from field, were randomized in groups of 25. Each treatment was performed with 4 replicates of 25 fruits, which were artificially inoculated on one side by pricking with a punch (2 mm length, 1 mm diameter) previously impregnated in a solution of Penicillium digitatum or Penicillium italicum spores of 5*10^5 cfu/ml and allowed to stand for 17 hours before treatment.
(§4) For the LD treatments, IMZ LD C18 and IMZ LD C12, suspensions of (IMZ)SG-C18-OH and (IMZ)SG-C12-OH at 6 g/l in tap water buffered with 10 mM of sodium etidronate at pH=7.5 was prepared from the concentrated suspensions described in examples 7 and 8. […] As a control, a treatment of bathing in tap water was carried out (CONTROL).
The 25 fruits of each replicate were bathed using a mesh by immersion for 30 seconds in 10 l of treatment. […] After this time, the number of rotten fruits were counted for each replicate. The effectiveness of the treatments is expressed as % rotting and also as rotting reduction index (RRI, %), which is calculated as: 100×(No. of rotten control fruits−No. of rotten products in the treatment)/No. of rotten fruits in the control.
This experiment was carried out following the same procedure as for examples 9-14. The free pyrimethanil residues in water and virtual were analyzed according to examples 18 and 19. […]

[3] = Analysis of free pyrimethanil in treatment water by HPLC; format: physicochemical; details: example 17
Experimental: as §1
This experiment was carried out following the same procedure as for examples 9-14. The free pyrimethanil residues in water and virtual were analyzed according to examples 18 and 19. For the reference conventional treatment (PIRREF) a solution of pyrimethanil at 525 mg/l in tap water was prepared from a commercial solution at 40% (PENBOTEC). For the LD treatment (PIR LD C18) a suspension of (PIR)SG-C18-OH of 14 g/l in tap water buffered with sodium etidronate 10 mM at pH=7.5 was prepared from the concentrated suspension described in example 16. A 14 g/l suspension correspond to a virtual pyrimethanil concentration contained within the microparticles of 525 mg/l. As a control, a treatment of bathing in tap water was carried out (CONTROL).
as §2, §3

[4] = Analysis of free imazalil in treatment water by HPLC; format: physicochemical; details: for [IMZ] free in water: treatment water at the moment of treatment; for Reduction of [IMZ] in water: versus reference treatment water
Experimental: as §2
Chromatographic Conditions:
60% Phosphate buffer pH=2.5, 2 mM
as §4, §1

[5] = treatment water at the moment of treatment
[6] = versus reference treatment water

c1ccc2[nH]c(-c3cscn3)nc2c1 [TBZ REF, thiabenzadol]
[TBZ] free in water [1, 5]: 1200 mg/L | Reduction of [TBZ] in water [1, 6]: 0.0% | rotting reduction index (RRI) ([2]; example 22, FIG. 18, 16 g/l (TBZ)SG-C18-OH in etidronic buffer pH=7.5 or thiabenzadol 1200 mg/l): 100%

Cc1cc(C)nc(Nc2ccccc2)n1 [PIR REF, pyrimethanil]
rotting reduction index (RRI) ([2]; example 17, FIG. 16, 14 g/l (PIR)SG-C18-OH in etidronic buffer pH=7.5 or pyrimethanil 525 mg/l): ~90% | [PIR] free in water [3, 5]: 525 mg/L | Reduction of [PIR] in water [3, 6]: 0.0%

imazalil sulfate [IMZ REF]
[IMZ] free in water ([4]; example 9): 450 mg/L | Reduction of [IMZ] in water ([4]; example 9): 0.0% | [IMZ] free in water ([4]; example 10): 450 mg/L | Reduction of [IMZ] in water ([4]; example 10): 0.0% | [IMZ] free in water ([4]; example 11): 450 mg/L | Reduction of [IMZ] in water ([4]; example 11): 0.0% | [IMZ] free in water ([4]; example 12): 450 mg/L | Reduction of [IMZ] in water ([4]; example 12): 0.0% | [IMZ] free in water ([4]; example 13): 450 mg/L | Reduction of [IMZ] in water ([4]; example 13): 0.0% | [IMZ] free in water ([4]; example 14): 450 mg/L | Reduction of [IMZ] in water ([4]; example 14): 0.0%
